Test results reported in patent US20260262643A1, “HERBICIDAL BENZOXAZINES” (FMC CORPORATION, priority 2022, published 2026).
Read-outs that look alike come from different tables or passages of the source.

Assays:
[1] = system: foxtail, giant; assay: Test A postemergence; assay type: in vivo, Setaria faberi; settings: Setaria faberi, post-emergence, 240 h, postemergence, 10 days, 0 to 100 scale (0 no effect, 100 complete control); for pest or weed control at 125 g/ha: 125 g ai/ha; for pest or weed control at 500 g/ha: 500 g ai/ha
Summary of the method: (§1)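 Seeds in loam–sand blend received a directed preemergence soil spray of compound in non-phytotoxic solvent with surfactant; postemergence plants (2–10 cm, one- to two-leaf stage) were sprayed with the same formulation. After 10 days in greenhouse, injury was rated visually versus untreated controls, 0 (no effect) to 100 (complete control).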

[2] = system: pigweed, palmer; assay: Test A postemergence; assay type: in vivo, Amaranthus palmeri; settings: Amaranthus palmeri, post-emergence, 240 h, postemergence, 10 days, 0 to 100 scale (0 no effect, 100 complete control); for pest or weed control at 125 g/ha: 125 g ai/ha, read-out: Pigweed, Palmer plant response rating; for pest or weed control at 500 g/ha: 500 g ai/ha, visual injury, read-out: Plant response rating, Pigweed, Palmer
Summary of the method: as §1

[3] = system: ragweed; assay: Test A preemergence; assay type: in vivo, Ambrosia artemisiifolia; settings: Ambrosia artemisiifolia, pre-emergence, 240 h, read-out: Plant response rating, Ragweed; for pest or weed control at 125 g/ha: 125 g ai/ha; for pest or weed control at 500 g/ha: 500 g ai/ha
Summary of the method: as §1

[4] = system: blackgrass; assay: Test A postemergence; assay type: in vivo, Alopecurus myosuroides; settings: Alopecurus myosuroides, post-emergence, 240 h; for pest or weed control at 125 g/ha: 125 g ai/ha; for pest or weed control at 500 g/ha: 500 g ai/ha
Summary of the method: as §1

[5] = system: soybean; assay: Test A preemergence; assay type: in vivo, Glycine max; settings: Glycine max, pre-emergence, 240 h, read-out: Plant response rating, Soybean; for plant injury at 125 g/ha: 125 g ai/ha; for plant injury at 500 g/ha: 500 g ai/ha
Summary of the method: as §1

[6] = system: blackgrass; assay: Test A preemergence; assay type: in vivo, Alopecurus myosuroides; settings: Alopecurus myosuroides, pre-emergence, 240 h, read-out: Plant response rating, Blackgrass; for pest or weed control at 125 g/ha: 125 g ai/ha; for pest or weed control at 500 g/ha: 500 g ai/ha
Summary of the method: as §1

[7] = system: ryegrass, Italian; assay: Test A preemergence; assay type: in vivo, Lolium multiflorum; settings: Lolium multiflorum, pre-emergence, 240 h, read-out: Plant response rating, Ryegrass, Italian; for pest or weed control at 125 g/ha: 125 g ai/ha; for pest or weed control at 500 g/ha: 500 g ai/ha
Summary of the method: as §1

[8] = system: ragweed; assay: Test A postemergence; assay type: in vivo, Ambrosia artemisiifolia; settings: Ambrosia artemisiifolia, post-emergence, 240 h, postemergence, 10 days, 0 to 100 scale (0 no effect, 100 complete control); for pest or weed control at 125 g/ha: 125 g ai/ha, read-out: Ragweed plant response rating; for pest or weed control at 500 g/ha: 500 g ai/ha, visual injury, read-out: Plant response rating, Ragweed
Summary of the method: as §1

[9] = system: goosegrass; assay: Test A postemergence; assay type: in vivo, Eleusine indica; settings: Eleusine indica, post-emergence, 240 h, postemergence, 10 days, 0 to 100 scale (0 no effect, 100 complete control); for pest or weed control at 125 g/ha: 125 g ai/ha; for pest or weed control at 500 g/ha: 500 g ai/ha
Summary of the method: as §1

[10] = system: pigweed, palmer; assay: Test A preemergence; assay type: in vivo, Amaranthus palmeri; settings: Amaranthus palmeri, pre-emergence, 240 h, read-out: Plant response rating, Pigweed, Palmer; for pest or weed control at 125 g/ha: 125 g ai/ha; for pest or weed control at 500 g/ha: 500 g ai/ha
Summary of the method: as §1

[11] = system: oat, wild; assay: Test A postemergence; assay type: in vivo, Avena fatua; settings: Avena fatua, post-emergence, 240 h, postemergence, 10 days, 0 to 100 scale (0 no effect, 100 complete control); for pest or weed control at 125 g/ha: 125 g ai/ha, read-out: Oat, Wild plant response rating; for pest or weed control at 500 g/ha: 500 g ai/ha, visual injury, read-out: Plant response rating, Oat, Wild
Summary of the method: as §1

[12] = system: corn; assay: Test A postemergence; assay type: in vivo, Zea mays; settings: Zea mays, post-emergence, 240 h, postemergence, 10 days, 0 to 100 scale (0 no effect, 100 complete control); for plant injury at 125 g/ha: read-out: Corn plant response rating; for Corn plant response rating (crop injury, 0 = no effect, 100 = complete kill) at 500 g/ha: 500 g ai/ha
Summary of the method: as §1

[13] = system: ducksalad; assay: Test B flooded paddy test; assay type: in vivo, Heteranthera limosa; settings: Heteranthera limosa, 312 h, 250 g ai/ha, Flood, 13 days, 0 to 100 scale (0 no effect, 100 complete control); read-out: Plant response rating, Ducksalad
Summary of the method: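 Flooded to 3 cm at treatment time, 2-leaf plants got the test compound applied straight into the paddy water. They then stayed under constant flood in a greenhouse for 13 days. Ratings used a 0 to 100 visual scale.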

[14] = system: wheat; assay: Test A postemergence; assay type: in vivo, Triticum aestivum; settings: Triticum aestivum, post-emergence, 240 h, postemergence, 10 days, 0 to 100 scale (0 no effect, 100 complete control); for plant injury at 125 g/ha: 125 g ai/ha, read-out: Wheat plant response rating; for plant injury at 500 g/ha: 500 g ai/ha, visual injury, read-out: Plant response rating, Wheat
Summary of the method: as §1

[15] = read-out: Foxtail, Giant plant response rating
[16] = visual injury, read-out: Plant response rating, Foxtail, Giant
[17] = visual injury after 10 days, 0 to 100 scale, 0 is no effect, 100 is complete control
[18] = 0 to 100 scale (0 no effect, 100 complete control), 10 days
[19] = postemergence, 10 days, 0 to 100 scale (0 no effect, 100 complete control), read-out: Blackgrass plant response rating
[20] = postemergence, 10 days, visual injury, 0 to 100 scale (0 no effect, 100 complete control), read-out: Plant response rating, Blackgrass
[21] = read-out: Goosegrass plant response rating
[22] = visual injury, read-out: Plant response rating, Goosegrass

SMILES	pest or weed control at 125 g/ha [1, 15] [%]	pest or weed control at 500 g/ha [1, 16] [%]	pest or weed control at 125 g/ha [2] [%]	pest or weed control at 500 g/ha [2] [%]	pest or weed control at 125 g/ha [3, 17] [%]	pest or weed control at 500 g/ha [3, 18] [%]	pest or weed control at 125 g/ha [4, 19] [%]	pest or weed control at 500 g/ha [4, 20] [%]	plant injury at 125 g/ha [5, 17] [%]	plant injury at 500 g/ha [5, 18] [%]	pest or weed control at 125 g/ha [6, 17] [%]	pest or weed control at 500 g/ha [6, 18] [%]	pest or weed control at 125 g/ha [7, 17] [%]	pest or weed control at 500 g/ha [8] [%]	pest or weed control at 500 g/ha [9, 22] [%]	pest or weed control at 125 g/ha [10, 17] [%]	pest or weed control at 500 g/ha [11] [%]	Corn plant response rating (crop injury, 0 = no effect, 100 = complete kill) at 500 g/ha ([12]; visual injury) [%]	pest or weed control at 250 g/ha [13] [%]	plant injury at 500 g/ha [14] [%]	other results
Cc1ccc(-n2cnc(C3CCC3)n2)cc1C(=O)N1C[C@H](C)Oc2c(Cl)cccc21 [Compound 96, [(2S)-8-Chloro-2,3-dihydro-2-methyl-4H-1,4-benzoxazin-4-yl][5-(3-cyclobutyl-1H-1,2,4-triazol-1-yl)-2-methylphenyl]methanone]	90	90	90	90	30	30	50	90	50	50	40	80	100	70	60	100	80	60	65	40	pest or weed control at 500 g/ha [7, 18]: 100%; pest or weed control at 125 g/ha [8]: 60%; pest or weed control at 125 g/ha [9, 21]: 30%; pest or weed control at 500 g/ha [10, 18]: 100%; pest or weed control at 125 g/ha [11]: 30%; plant injury at 125 g/ha ([12]; 125 g ai/ha): 10%; plant injury at 125 g/ha [14]: 30%
Cc1ncn(-c2ccc(C)c(C(=O)N3C[C@H](C)Oc4c(Cl)cccc43)c2)n1 (single isomer, unassigned) [Compound 74]	–	90	–	70	0	100	–	–	70	100	70	90	100	50	0	90	60	90	60	80	pest or weed control at 125 g/ha [1, 16]: 90%; pest or weed control at 125 g/ha [4, 20]: 70%; pest or weed control at 500 g/ha ([4]; Postemergence, 0 to 100 scale, read-out: Plant response rating, Blackgrass): 90%; pest or weed control at 500 g/ha [7, 18]: 100%; pest or weed control at 125 g/ha [9, 22]: 0%; pest or weed control at 500 g/ha [10, 18]: 100%; Corn plant response rating (crop injury, 0 = no effect, 100 = complete kill) at 125 g/ha ([12]; 125 g ai/ha, visual injury): 60%
C[C@H]1CN(C(=O)c2cccc(-c3cnn(C)n3)c2)c2cccc(Cl)c2O1 [Compound 127, [(2S)-8-Chloro-2,3-dihydro-2-methyl-4H-1,4-benzoxazin-4-yl][3-(2-methyl-2H-1,2,3-triazol-4-yl)phenyl]methanone]	50	90	60	90	0	–	0	80	0	–	20	–	20	10	70	40	10	50	0	20	pest or weed control at 500 g/ha [3, 17]: 0%; plant injury at 500 g/ha [5, 17]: 0%; pest or weed control at 500 g/ha [6, 17]: 70%; pest or weed control at 500 g/ha [7, 17]: 90%; pest or weed control at 125 g/ha [8]: 0%; pest or weed control at 125 g/ha [9, 21]: 10%; pest or weed control at 500 g/ha [10, 17]: 90%; pest or weed control at 125 g/ha [11]: 0%; plant injury at 125 g/ha ([12]; 125 g ai/ha): 20%; plant injury at 125 g/ha [14]: 10%
